According to patent US9006174B2 (priority 2009, dated 2015):
Ends that are not written are not given here.

Tested on: hRBCs
Details: human erythrocytes, 1 h at 37° C.

Row | Sequence | Toxicity Haemolysis (hRBCs)
1 | RFGRFLRKIRRFRGKVTITIQGSARF [CMAP26 (P14→G)] | − (<25% dead cells)
2 | RFGRFLRKIRRFRLKVTITIQGSARF [CMAP26 (P14→L)] | − (<25% dead cells)
3 | RFGRFLRKIRRLRPK [CMAP(1-15) (F12→L), RFGRFLRKIRRLRPK] | − (<25% dead cells)
4 | RFGRFLRKIRRWRPK [CMAP(1-15) (F12→W), RFGRFLRKIRRWRPK] | −− (<5% dead cells)
